Measured values taken from ChEMBL document CHEMBL5291721, “A preclinical secondary pharmacology resource illuminates target-adverse drug reaction associations of marketed drugs” (Nat Commun, 2023).
Several values for one entry are separate records, joined by “and”; a condition that tells them apart may be missing. Identical values can stand only once.

Key:
[1] = biological target: T1, Alpha-1A adrenergic receptor (Homo sapiens, UniProt P35348); format: functional, cell-based
T1 sequence (P35348 whole entry): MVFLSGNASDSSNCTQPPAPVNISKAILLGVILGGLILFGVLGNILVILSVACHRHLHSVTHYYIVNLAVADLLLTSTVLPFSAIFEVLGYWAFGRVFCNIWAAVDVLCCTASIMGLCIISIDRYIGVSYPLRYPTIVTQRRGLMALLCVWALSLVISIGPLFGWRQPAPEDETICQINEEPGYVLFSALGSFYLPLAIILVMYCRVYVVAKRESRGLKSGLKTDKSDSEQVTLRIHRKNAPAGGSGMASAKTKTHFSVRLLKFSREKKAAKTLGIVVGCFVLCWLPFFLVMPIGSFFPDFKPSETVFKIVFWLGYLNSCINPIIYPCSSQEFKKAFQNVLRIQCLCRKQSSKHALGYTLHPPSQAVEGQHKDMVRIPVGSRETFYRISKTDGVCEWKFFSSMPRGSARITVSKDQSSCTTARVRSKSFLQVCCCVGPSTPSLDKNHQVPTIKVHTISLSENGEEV

[2] = biological target: Beta-2 adrenergic receptor (Homo sapiens, UniProt P07550)
Cannabinoid receptor 1 = Cannabinoid receptor 1 (Homo sapiens, UniProt P21554)
[3] = biological target: T2, Alpha-2A adrenergic receptor (Homo sapiens, UniProt P08913); format: functional, cell-based
T2 sequence (P08913 whole entry): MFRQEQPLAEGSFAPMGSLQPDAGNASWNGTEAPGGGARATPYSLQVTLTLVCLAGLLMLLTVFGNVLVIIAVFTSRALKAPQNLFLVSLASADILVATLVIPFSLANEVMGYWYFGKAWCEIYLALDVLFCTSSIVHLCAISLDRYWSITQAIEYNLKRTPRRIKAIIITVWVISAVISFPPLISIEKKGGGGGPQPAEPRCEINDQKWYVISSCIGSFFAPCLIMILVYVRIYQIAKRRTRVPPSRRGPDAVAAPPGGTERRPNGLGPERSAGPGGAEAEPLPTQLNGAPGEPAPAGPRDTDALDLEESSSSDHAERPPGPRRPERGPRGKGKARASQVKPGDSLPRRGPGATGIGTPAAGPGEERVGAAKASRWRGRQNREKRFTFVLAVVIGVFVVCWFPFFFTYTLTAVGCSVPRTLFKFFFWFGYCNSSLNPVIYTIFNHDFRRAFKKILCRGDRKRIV

[4] = biological target: 5-hydroxytryptamine receptor 2A (Homo sapiens, UniProt P28223); format: functional, cell-based
Melanocortin receptor 4 = Melanocortin receptor 4 (Homo sapiens, UniProt P32245)
Glucocorticoid receptor = biological target: T3, Glucocorticoid receptor (Homo sapiens, UniProt P04150)
T3 sequence (P04150 whole entry): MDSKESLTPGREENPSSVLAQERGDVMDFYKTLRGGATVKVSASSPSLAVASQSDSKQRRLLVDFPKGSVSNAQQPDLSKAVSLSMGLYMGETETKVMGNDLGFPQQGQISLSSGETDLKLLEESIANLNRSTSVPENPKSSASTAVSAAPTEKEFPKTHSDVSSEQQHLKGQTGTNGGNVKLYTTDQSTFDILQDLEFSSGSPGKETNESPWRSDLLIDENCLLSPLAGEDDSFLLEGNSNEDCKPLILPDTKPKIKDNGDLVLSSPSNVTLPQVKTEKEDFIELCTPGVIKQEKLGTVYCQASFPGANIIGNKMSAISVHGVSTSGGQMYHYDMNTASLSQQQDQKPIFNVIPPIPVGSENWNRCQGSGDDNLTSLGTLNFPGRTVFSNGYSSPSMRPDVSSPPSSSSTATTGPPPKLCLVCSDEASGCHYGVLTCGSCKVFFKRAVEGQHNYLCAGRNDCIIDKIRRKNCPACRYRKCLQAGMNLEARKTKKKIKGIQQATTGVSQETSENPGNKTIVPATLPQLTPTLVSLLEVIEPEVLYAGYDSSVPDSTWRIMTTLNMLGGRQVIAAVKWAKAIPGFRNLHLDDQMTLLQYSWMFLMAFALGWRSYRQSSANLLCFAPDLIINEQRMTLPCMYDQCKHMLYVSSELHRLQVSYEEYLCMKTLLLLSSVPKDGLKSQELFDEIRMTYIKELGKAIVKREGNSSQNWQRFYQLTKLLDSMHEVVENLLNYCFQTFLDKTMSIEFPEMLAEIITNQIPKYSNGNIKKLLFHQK

[5] = biological target: T2, Alpha-2A adrenergic receptor
Prothrombin = Prothrombin (Homo sapiens, UniProt P00734); format: functional
D(3) dopamine receptor = D(3) dopamine receptor (Homo sapiens, UniProt P35462)
[6] = biological target: T4, Prostaglandin G/H synthase 1 (Homo sapiens, UniProt P23219); format: functional
Histamine H3 receptor = Histamine H3 receptor (Homo sapiens, UniProt Q9Y5N1)
[7] = biological target: T4, Prostaglandin G/H synthase 1; format: functional; remark: listed apart in the source
[8] = biological target: cGMP-inhibited 3',5'-cyclic phosphodiesterase 3A (Homo sapiens, UniProt Q14432); format: functional
[9] = biological target: T5, Muscarinic acetylcholine receptor M2 (Homo sapiens, UniProt P08172)
T5 sequence (P08172 whole entry): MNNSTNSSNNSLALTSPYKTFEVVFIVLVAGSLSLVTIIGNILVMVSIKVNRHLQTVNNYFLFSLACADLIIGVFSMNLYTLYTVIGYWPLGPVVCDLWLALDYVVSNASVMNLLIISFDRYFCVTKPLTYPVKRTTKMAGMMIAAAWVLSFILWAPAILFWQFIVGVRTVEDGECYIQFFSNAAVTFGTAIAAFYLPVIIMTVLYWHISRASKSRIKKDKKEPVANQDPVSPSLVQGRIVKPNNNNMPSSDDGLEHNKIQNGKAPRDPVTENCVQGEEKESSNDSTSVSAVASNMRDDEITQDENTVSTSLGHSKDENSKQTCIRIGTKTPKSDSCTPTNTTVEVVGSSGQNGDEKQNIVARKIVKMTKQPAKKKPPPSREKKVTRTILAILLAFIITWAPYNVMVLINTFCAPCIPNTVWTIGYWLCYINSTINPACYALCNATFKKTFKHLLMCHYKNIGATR
Note: assay procedure not described here.

Sequence of 5-hydroxytryptamine receptor 2A (P28223 whole entry): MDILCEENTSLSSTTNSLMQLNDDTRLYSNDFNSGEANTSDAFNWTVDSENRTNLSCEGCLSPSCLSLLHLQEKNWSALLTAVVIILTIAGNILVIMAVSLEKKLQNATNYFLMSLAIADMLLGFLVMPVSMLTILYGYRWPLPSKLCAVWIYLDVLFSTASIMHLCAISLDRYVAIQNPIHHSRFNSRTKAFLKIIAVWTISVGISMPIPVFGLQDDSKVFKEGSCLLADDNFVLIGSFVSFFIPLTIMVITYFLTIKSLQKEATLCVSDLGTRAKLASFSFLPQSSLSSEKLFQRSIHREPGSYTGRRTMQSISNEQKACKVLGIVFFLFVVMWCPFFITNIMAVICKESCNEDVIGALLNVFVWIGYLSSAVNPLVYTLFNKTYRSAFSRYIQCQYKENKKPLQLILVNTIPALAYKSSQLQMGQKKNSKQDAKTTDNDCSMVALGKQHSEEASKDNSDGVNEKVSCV
Sequence of Beta-2 adrenergic receptor (P07550 whole entry): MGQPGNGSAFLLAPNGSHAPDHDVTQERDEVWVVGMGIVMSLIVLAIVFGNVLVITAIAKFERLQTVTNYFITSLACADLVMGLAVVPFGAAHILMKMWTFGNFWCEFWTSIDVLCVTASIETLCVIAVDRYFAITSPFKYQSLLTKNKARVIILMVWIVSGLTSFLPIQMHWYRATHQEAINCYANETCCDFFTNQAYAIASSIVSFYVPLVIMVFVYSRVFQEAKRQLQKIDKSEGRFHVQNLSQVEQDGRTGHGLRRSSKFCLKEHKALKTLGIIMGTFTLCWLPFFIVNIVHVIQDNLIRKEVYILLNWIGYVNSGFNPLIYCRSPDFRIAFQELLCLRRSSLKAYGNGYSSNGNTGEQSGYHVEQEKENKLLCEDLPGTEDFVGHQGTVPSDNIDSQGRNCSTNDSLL
Sequence of Melanocortin receptor 4 (P32245 whole entry): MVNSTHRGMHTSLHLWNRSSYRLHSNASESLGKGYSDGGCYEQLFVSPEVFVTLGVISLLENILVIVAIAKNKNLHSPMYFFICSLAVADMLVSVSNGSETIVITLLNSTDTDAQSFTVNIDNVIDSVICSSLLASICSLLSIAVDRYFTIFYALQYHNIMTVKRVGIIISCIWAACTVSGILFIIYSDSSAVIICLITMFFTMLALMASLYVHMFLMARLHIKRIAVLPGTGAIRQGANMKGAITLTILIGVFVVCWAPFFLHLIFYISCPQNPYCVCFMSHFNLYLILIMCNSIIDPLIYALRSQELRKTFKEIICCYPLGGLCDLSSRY
Sequence of Cannabinoid receptor 1 (P21554 whole entry): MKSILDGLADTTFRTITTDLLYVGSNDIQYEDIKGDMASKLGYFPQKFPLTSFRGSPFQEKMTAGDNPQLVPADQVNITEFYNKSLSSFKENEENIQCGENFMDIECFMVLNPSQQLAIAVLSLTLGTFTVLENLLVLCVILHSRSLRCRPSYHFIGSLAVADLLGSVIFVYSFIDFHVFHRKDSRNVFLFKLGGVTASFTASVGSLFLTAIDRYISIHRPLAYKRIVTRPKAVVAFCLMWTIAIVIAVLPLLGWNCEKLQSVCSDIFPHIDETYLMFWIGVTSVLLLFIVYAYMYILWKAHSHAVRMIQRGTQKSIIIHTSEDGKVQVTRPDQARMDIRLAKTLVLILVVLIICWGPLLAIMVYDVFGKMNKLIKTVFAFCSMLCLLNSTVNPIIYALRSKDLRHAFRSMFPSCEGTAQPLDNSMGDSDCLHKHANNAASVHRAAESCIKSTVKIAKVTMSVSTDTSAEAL
T4 sequence (P23219 whole entry): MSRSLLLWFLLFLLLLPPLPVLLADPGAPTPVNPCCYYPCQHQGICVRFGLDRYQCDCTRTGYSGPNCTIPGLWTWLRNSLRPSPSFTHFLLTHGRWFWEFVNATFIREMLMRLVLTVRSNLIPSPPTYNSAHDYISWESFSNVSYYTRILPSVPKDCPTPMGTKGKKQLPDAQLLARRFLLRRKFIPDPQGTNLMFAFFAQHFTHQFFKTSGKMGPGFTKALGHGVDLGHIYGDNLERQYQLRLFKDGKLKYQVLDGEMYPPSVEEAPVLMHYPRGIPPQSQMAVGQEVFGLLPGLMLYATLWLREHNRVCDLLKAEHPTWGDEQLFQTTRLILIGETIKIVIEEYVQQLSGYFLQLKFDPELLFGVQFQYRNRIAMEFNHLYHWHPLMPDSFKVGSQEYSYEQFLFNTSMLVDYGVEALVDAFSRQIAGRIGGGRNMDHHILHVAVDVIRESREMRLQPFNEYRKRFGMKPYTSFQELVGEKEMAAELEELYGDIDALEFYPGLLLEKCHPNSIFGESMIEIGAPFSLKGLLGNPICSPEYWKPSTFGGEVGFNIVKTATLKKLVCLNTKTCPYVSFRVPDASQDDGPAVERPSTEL
Sequence of cGMP-inhibited 3',5'-cyclic phosphodiesterase 3A (Q14432 whole entry): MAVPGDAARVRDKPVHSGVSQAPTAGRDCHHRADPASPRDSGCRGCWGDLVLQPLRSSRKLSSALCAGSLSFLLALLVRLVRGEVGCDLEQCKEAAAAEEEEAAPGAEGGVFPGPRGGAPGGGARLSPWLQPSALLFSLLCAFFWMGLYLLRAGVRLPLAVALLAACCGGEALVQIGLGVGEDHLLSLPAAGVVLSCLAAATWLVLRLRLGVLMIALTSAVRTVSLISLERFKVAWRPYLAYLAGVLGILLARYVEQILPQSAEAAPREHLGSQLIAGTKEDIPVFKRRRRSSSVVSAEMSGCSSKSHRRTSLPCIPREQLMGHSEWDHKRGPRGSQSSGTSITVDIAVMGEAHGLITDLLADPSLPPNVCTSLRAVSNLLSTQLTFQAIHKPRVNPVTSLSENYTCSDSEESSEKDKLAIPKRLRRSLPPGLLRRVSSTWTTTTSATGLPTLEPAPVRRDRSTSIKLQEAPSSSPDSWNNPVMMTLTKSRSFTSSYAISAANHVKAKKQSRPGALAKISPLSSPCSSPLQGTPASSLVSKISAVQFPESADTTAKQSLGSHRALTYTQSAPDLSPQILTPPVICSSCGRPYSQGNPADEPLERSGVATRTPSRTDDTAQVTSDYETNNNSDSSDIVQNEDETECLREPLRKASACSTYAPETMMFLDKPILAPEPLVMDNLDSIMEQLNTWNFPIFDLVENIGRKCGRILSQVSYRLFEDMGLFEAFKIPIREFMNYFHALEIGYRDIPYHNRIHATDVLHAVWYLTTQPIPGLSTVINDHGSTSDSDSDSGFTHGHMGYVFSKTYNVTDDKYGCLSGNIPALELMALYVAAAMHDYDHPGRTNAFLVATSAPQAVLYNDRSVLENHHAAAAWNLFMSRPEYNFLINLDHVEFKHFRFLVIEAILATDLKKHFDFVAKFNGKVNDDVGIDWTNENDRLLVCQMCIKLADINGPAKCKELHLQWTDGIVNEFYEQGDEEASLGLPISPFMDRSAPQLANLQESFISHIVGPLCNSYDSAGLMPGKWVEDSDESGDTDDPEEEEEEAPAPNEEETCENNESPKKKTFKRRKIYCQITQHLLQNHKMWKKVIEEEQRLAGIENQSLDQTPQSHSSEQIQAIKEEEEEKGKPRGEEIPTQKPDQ
Sequence of D(3) dopamine receptor (P35462 whole entry): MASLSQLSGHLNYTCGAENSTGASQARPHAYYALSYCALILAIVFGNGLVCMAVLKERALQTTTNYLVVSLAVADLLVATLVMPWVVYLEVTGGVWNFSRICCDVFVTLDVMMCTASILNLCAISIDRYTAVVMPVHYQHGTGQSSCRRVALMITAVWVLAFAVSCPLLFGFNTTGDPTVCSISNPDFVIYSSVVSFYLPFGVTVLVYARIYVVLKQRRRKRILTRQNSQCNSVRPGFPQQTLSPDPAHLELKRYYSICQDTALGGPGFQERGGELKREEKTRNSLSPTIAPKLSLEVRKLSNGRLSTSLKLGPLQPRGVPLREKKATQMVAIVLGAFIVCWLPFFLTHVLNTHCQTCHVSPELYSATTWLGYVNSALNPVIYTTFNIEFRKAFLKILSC
Sequence of Histamine H3 receptor (Q9Y5N1 whole entry): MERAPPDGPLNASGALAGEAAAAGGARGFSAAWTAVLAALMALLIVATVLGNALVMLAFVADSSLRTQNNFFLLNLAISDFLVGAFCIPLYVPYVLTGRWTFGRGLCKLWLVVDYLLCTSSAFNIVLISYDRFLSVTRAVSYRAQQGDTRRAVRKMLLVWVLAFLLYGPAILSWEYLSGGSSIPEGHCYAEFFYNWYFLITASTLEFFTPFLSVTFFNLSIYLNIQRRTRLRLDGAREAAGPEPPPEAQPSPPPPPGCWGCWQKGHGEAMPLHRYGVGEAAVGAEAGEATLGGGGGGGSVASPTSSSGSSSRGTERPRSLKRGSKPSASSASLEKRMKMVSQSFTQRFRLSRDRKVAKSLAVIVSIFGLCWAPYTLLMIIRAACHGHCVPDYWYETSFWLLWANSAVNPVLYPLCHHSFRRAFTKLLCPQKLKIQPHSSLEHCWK

CC1OC2(CS1)CN1CCC2CC1 (configuration not stated) [CEVIMELINE]
AC50 [1]: > 30 µM | AC50 [2]: > 10 µM | AC50 (Cannabinoid receptor 1): > 10 µM | AC50 [3]: > 10 µM | AC50 [4]: > 10 µM | AC50 (Melanocortin receptor 4): > 10 µM | AC50 (Glucocorticoid receptor): > 10 µM

COc1cc(N)c(Cl)cc1C(=O)NC1CCN(Cc2ccccc2)CC1 [CLEBOPRIDE]
AC50 [1]: 14 µM | AC50 [2]: > 30 µM | AC50 [3]: 14 µM | AC50 [4]: > 30 µM | AC50 (Glucocorticoid receptor): > 30 µM

C=CCNc1nc(NCC=C)nc(N2CCN(C(c3ccc(F)cc3)c3ccc(F)cc3)CC2)n1 [ALMITRINE]
AC50 [2]: > 30 µM | AC50 (Cannabinoid receptor 1): > 30 µM | AC50 [3]: > 30 µM | AC50 [4]: > 30 µM | AC50 (Glucocorticoid receptor): > 30 µM

COCC1=C(C(=O)O)N2C(=O)[C@@H](NC(=O)/C(=N\OC)c3csc(N)n3)[C@H]2SC1 [CEFPODOXIME]
AC50 [1]: > 30 µM | AC50 [2]: > 30 µM | AC50 [3]: > 30 µM | AC50 [4]: > 30 µM | AC50 (Glucocorticoid receptor): > 30 µM

Nc1ncn([C@H]2C[C@H](O)[C@@H](CO)O2)c(=O)n1 [DECITABINE]
AC50 (Cannabinoid receptor 1): > 30 µM | AC50 [3]: > 30 µM | AC50 [4]: > 30 µM | AC50 (Melanocortin receptor 4): > 30 µM | AC50 (Glucocorticoid receptor): > 30 µM

CCOC(=O)c1cncn1[C@H](C)c1ccccc1 [ETOMIDATE]
AC50 [1]: > 30 µM | AC50 [2]: > 10 µM | AC50 (Cannabinoid receptor 1): > 10 µM | AC50 [3]: > 10 µM | AC50 [4]: > 10 µM | AC50 (Melanocortin receptor 4): > 10 µM | AC50 (Glucocorticoid receptor): > 10 µM

Clc1ccc2c(N3CCN(CCCN4CCN(c5ccnc6cc(Cl)ccc56)CC4)CC3)ccnc2c1 [PIPERAQUINE]
AC50 [1]: > 30 µM | AC50 [2]: > 30 µM | AC50 [3]: > 30 µM | AC50 [4]: > 30 µM | AC50 (Glucocorticoid receptor): > 30 µM

CC1(C)S[C@@H]2[C@H](NC(=O)[C@H](N)c3ccccc3)C(=O)N2[C@H]1C(=O)OCOC(=O)[C@@H]1N2C(=O)C[C@H]2S(=O)(=O)C1(C)C [SULTAMICILLIN]
AC50 [1]: > 30 µM | AC50 [2]: > 30 µM | AC50 [3]: > 30 µM | AC50 [4]: > 30 µM | AC50 (Glucocorticoid receptor): > 30 µM

CC(C)[C@H](N)C(=O)OCC(CO)OCn1cnc2c(=O)nc(N)[nH]c21 (some centres not stated) [VALGANCICLOVIR]
AC50 [2]: > 30 µM | AC50 (Cannabinoid receptor 1): > 30 µM | AC50 [3]: > 30 µM | AC50 [4]: > 30 µM | AC50 (Melanocortin receptor 4): > 30 µM | AC50 (Glucocorticoid receptor): > 30 µM

CCC1(c2ccccc2)CCC(=O)NC1=O (configuration not stated) [GLUTETHIMIDE]
AC50 [1]: > 30 µM | AC50 [2]: > 10 µM | AC50 (Cannabinoid receptor 1): > 10 µM | AC50 [3]: > 10 µM | AC50 [4]: > 30 µM | AC50 (Melanocortin receptor 4): > 10 µM

O=[N+]([O-])c1ccc(O)c2ncccc12 [NITROXOLINE]
AC50 [5]: > 30 µM | AC50 (Prothrombin): > 30 µM | AC50 (D(3) dopamine receptor): 20.4 µM | AC50 [1]: > 30 µM | AC50 [6]: > 30 µM | AC50 (Histamine H3 receptor): > 30 µM | AC50 [3]: > 30 µM | AC50 [4]: > 30 µM | AC50 [7]: > 30 µM | AC50 [8]: > 30 µM | AC50 [9]: > 30 µM

CCC(=O)O[C@H]1CC[C@H]2[C@@H]3CCC4=CC(=O)CC[C@]4(C)[C@H]3CC[C@]12C [TESTOSTERONE PROPIONATE]
AC50 [1]: > 30 µM | AC50 [2]: > 10 µM | AC50 (Cannabinoid receptor 1): > 10 µM | AC50 [3]: > 10 µM | AC50 [4]: > 30 µM | AC50 (Melanocortin receptor 4): > 10 µM | AC50 (Glucocorticoid receptor): 0.109 µM

CNCc1ccc(-c2[nH]c3cc(F)cc4c3c2CCNC4=O)cc1 [RUCAPARIB]
AC50 [2]: > 30 µM | AC50 [4]: > 10 µM | AC50 (Melanocortin receptor 4): > 30 µM | AC50 (Glucocorticoid receptor): > 30 µM

C#C[C@]1(OC(C)=O)CC[C@H]2[C@@H]3CCC4=C/C(=N/O)CC[C@@H]4[C@H]3CC[C@@]21CC [NORGESTIMATE]
AC50 [1]: > 30 µM | AC50 [2]: > 30 µM | AC50 [3]: > 30 µM | AC50 [4]: > 30 µM | AC50 (Glucocorticoid receptor): 0.041 µM

CCC(C)C(CC)C(N)=O (configuration not stated) [VALNOCTAMIDE]
AC50 [1]: > 30 µM | AC50 [3]: > 30 µM | AC50 [4]: > 30 µM | AC50 (Glucocorticoid receptor): > 30 µM

Clc1ccc(C(Cn2ccnc2)OCc2ccsc2Cl)c(Cl)c1 (configuration not stated) [TIOCONAZOLE]
AC50 [1]: 3.2 µM | AC50 [2]: 10.6 µM | AC50 (Cannabinoid receptor 1): > 30 µM | AC50 [3]: > 30 µM | AC50 [4]: > 30 µM | AC50 (Melanocortin receptor 4): > 30 µM | AC50 (Glucocorticoid receptor): 17.9 µM

CC(C)(C)C(=O)OCC(=O)[C@H]1CC[C@H]2[C@@H]3CCC4=CC(=O)CC[C@]4(C)[C@H]3CC[C@]12C [DESOXYCORTICOSTERONE PIVALATE]
AC50 [1]: > 30 µM | AC50 [2]: > 10 µM | AC50 (Cannabinoid receptor 1): > 10 µM | AC50 [3]: > 10 µM | AC50 [4]: > 10 µM | AC50 (Melanocortin receptor 4): > 10 µM

C[C@]12CCC(=O)C(O)=C1CC[C@@H]1[C@@H]2CC[C@]2(C)C(=O)CC[C@@H]12 [FORMESTANE]
AC50 [1]: > 30 µM | AC50 [2]: > 30 µM | AC50 [3]: > 30 µM | AC50 [4]: > 30 µM | AC50 (Glucocorticoid receptor): > 30 µM

CC(C)COCC(CN(Cc1ccccc1)c1ccccc1)N1CCCC1 (configuration not stated) [BEPRIDIL]
AC50 [2]: > 30 µM | AC50 (Cannabinoid receptor 1): 10 µM | AC50 [3]: > 30 µM | AC50 [4]: > 30 µM | AC50 (Melanocortin receptor 4): 15.4 µM | AC50 (Glucocorticoid receptor): > 30 µM

CCOC(=O)C1=C[C@]2(CC)CCCN3CCc4c(n1c1ccccc41)[C@@H]32 [VINPOCETINE]
AC50 [1]: > 30 µM | AC50 [3]: 19 µM | AC50 [4]: > 30 µM | AC50 (Glucocorticoid receptor): > 30 µM

C[C@H](Cc1ccc(O)c(O)c1)[C@@H](C)Cc1ccc(O)c(O)c1 [MASOPROCOL]
AC50 [1]: 8.4 µM and > 30 µM (2×) | AC50 [2]: > 10 µM | AC50 (Cannabinoid receptor 1): 23.9 µM | AC50 [3]: > 10 µM | AC50 [4]: > 30 µM | AC50 (Melanocortin receptor 4): > 10 µM | AC50 (Glucocorticoid receptor): 8.7 µM
